EC50 data for 28 molecules are collected here from US10183946B2, “Triazolo[4,5-D]pyrimidines” (Hoffmann—La Roche Inc., priority 2014, dated 2019).

The target in one assay is human CB1 receptors (Homo sapiens (Human), UniProt P21554). Put plainly: cAMP assay, CHO cells expressing human CB1 receptors. The assay is classed as cell-based. To be noted: functional cAMP assay, CHO cells expressing human CB1; read-out: CB1 hcAMP EC50. Here is the method: (§1) CHO cells expressing human CB1 or CB2 receptors are seeded 17-24 hours prior to the experiment 50.000 cells per well in a black 96 well plate with flat clear bottom (Corning Costar #3904) in DMEM (Invitrogen No. 31331), 1×HT supplement, with 10% fetal calf serum and incubated at 5% CO2 and 37° C. in a humidified incubator. The growth medium was exchanged with Krebs Ringer Bicarbonate buffer with 1 mM IBMX and incubated at 30° C. for 30 min. Compounds were added to a final assay volume of 100 μl and incubated for 30 min at 30° C. Using the cAMP-Nano-TRF detection kit the assay (Roche Diagnostics) was stopped by the addition of 50 μl lysis reagent (Tris, NaCl, 1.5% Triton X100, 2.5% NP40, 10% NaN3) and 50 μl detection solutions (20 μM mAb Alexa700-cAMP 1:1, and 48 μM Ruthenium-2-AHA-cAMP) and shaken for 2 h at room temperature. The time-resolved energy transfer is measured by a TRF reader (Evotec Technologies GmbH), equipped with a ND:YAG laser as excitation source. The plate is measured twice with the excitation at 355 nm and at the emission with a delay of 100 ns and a gate of 100 ns, total exposure time 10 s at 730 (bandwidth 30 nm) or 645 nm (bandwidth 75 nm), respectively. The FRET signal is calculated as follows: FRET=T730-Alexa730-P(T645-B645) with P=Ru730-B730/Ru645-B645, where T730 is the test well measured at 730 nM, T645 is the test well measured at 645 nm, B730 and B645 are the buffer controls at 730 nm and 645 nm, respectively. cAMP content is determined from the function of a standard curve spanning from 10 μM to 0.13 nM cAMP.
(§2) EC50 values were determined using Activity Base analysis (ID Business Solution, Limited). The EC50 values for a wide range of cannabinoid agonists generated from this assay were in agreement with the values published in the scientific literature.
Background: Changes in cAMP serve as a functional read-out for many G protein-coupled receptors.

For another assay, the target named is human CB2 receptors (Homo sapiens (Human), UniProt P34972). Put plainly: cAMP assay, CHO cells expressing human CB2 receptors. The assay is classed as cell-based. The settings on record: functional cAMP assay, read-out: CB2 hcAMP EC50. As for the experimental part: as §1, §2
human CB2 receptors, sequence (P34972 whole entry): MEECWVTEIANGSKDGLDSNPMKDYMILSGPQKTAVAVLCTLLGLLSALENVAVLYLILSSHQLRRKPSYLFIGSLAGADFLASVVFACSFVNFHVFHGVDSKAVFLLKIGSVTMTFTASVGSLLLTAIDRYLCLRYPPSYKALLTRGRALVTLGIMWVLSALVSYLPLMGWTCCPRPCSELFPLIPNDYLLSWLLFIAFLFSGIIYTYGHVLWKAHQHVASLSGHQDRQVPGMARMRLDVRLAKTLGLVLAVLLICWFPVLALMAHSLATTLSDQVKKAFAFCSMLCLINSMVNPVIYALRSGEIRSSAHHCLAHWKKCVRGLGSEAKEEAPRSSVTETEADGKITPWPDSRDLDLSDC

human CB1 receptors, sequence (P21554 whole entry): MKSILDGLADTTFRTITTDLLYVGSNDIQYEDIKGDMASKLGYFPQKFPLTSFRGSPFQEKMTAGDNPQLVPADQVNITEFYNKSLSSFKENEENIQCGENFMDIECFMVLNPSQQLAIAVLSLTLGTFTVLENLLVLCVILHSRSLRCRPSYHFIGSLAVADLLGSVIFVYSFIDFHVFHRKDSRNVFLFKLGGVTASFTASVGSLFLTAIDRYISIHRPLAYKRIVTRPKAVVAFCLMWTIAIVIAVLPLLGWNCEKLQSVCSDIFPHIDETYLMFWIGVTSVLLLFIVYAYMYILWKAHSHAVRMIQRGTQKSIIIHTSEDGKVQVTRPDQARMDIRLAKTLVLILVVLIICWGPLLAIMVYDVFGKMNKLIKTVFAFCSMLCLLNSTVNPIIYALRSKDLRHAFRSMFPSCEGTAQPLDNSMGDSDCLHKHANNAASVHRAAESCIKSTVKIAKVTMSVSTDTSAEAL

Take `Cc1oncc1-c1nc(C(C)(C)C)nc2c1nnn2Cc1ccccc1Cl` [Example 11, 4-[5-tert-butyl-3-[(2-chlorophenyl)methyl]triazolo[4,5-d]pyrimidin-7-yl]-5-methyl-1,2-oxazole]: the EC50 (as a rule, the concentration that produces a half-maximal response) at human CB1 receptors was over 10000 nM; on human CB2 receptors, 76.5 nM.

On to `Cn1cc(-c2nc(C(C)(C)C)nc3c2nnn3Cc2nnnn2C)cn1` [Example 24, 5-tert-butyl-7-(1-methylpyrazol-4-yl)-3-[(1-methyltetrazol-5-yl)methyl]triazolo[4,5-d]pyrimidine], for which the results for the concentration giving a half-maximal response (EC50) at human CB1 receptors and on human CB2 receptors were over 10000 nM and 156 nM, respectively.

As to `COc1ccc(-c2nc(C(C)(C)C)nc3c2nnn3Cc2ccccc2Cl)cc1` [Example 3, 5-tert-butyl-3-[(2-chlorophenyl)methyl]-7-(4-methoxyphenyl)triazolo[4,5-d]pyrimidine], the EC50 is over 10000 nM at human CB1 receptors and 239 nM at human CB2 receptors.

Regarding `Cn1nccc1-c1nc(C(C)(C)C)nc2c1nnn2CC(C)(C)O` [Example 22, 1-[5-tert-butyl-7-(2-methylpyrazol-3-yl)triazolo[4,5-d]pyrimidin-3-yl]-2-methylpropan-2-ol], the concentration for a half-maximal effect (EC50) on human CB1 receptors is over 10000 nM; at human CB2 receptors, 206 nM.

Take `Cc1oncc1-c1nc(C(C)(C)C)nc2c1nnn2Cc1nnnn1C` [Example 27, 4-[5-tert-butyl-3-[(1-methyltetrazol-5-yl)methyl]triazolo[4,5-d]pyrimidin-7-yl]-5-methyl-1,2-oxazole]: the values for the EC50 at human CB1 receptors and on human CB2 receptors were over 10000 nM and 515 nM, respectively.

On to `CC(C)(C)c1nc(C2(F)CCC2)c2nnn(Cc3ccccc3)c2n1` [Example 32, 3-Benzyl-5-tert-butyl-7-(1-fluorocyclobutyl)triazolo[4,5-d]pyrimidine], for which the results for the EC50 on human CB1 receptors and at human CB2 receptors were over 10000 nM and 24 nM, respectively.

For the molecule `CC(C)(C)c1nc(-c2ccccc2)c2nnn(Cc3ccccc3Cl)c2n1` [Example 10, 5-tert-butyl-3-[(2-chlorophenyl)methyl]-7-phenyltriazolo[4,5-d]pyrimidine], the figures for the EC50 on human CB1 receptors and at human CB2 receptors were over 10000 nM and 80.2 nM, respectively.

As for `CC(C)(C)c1nc(C2(O)CCCCCC2)c2nnn(Cc3ccccc3Cl)c2n1` [Example 36, 1-[5-tert-Butyl-3-[(2-chlorophenyl)methyl]triazolo[4,5-d]pyrimidin-7-yl]cycloheptanol], the half-maximal effective concentration (EC50) was over 10000 nM on human CB1 receptors and 17.3 nM at human CB2 receptors.

For `Cc1ccc(-c2nc(C(C)(C)C)nc3c2nnn3Cc2ccccc2Cl)nc1` [Example 7, 5-tert-butyl-3-[(2-chlorophenyl)methyl]-7-(5-methylpyridin-2-yl)triazolo[4,5-d]pyrimidine], the EC50 at human CB1 receptors is over 10000 nM; on human CB2 receptors, 488 nM.

Take `CC(C)(C)c1nc(C2(O)CCCC2)c2nnn(Cc3ccccc3Cl)c2n1` [Example 34, 1-[5-tert-Butyl-3-[(2-chlorophenyl)methyl]triazolo[4,5-d]pyrimidin-7-yl]cyclopentanol]: the figures for the EC50 at human CB1 receptors and at human CB2 receptors were over 10000 nM and 35.3 nM, respectively.

With `CC(C)(C)c1nc(C2(O)CCC2)c2nnn(Cc3ccccc3Cl)c2n1` [Example 33, 1-[5-tert-Butyl-3-[(2-chlorophenyl)methyl]triazolo[4,5-d]pyrimidin-7-yl]cyclobutanol], the EC50 was over 10000 nM on human CB1 receptors and 233 nM at human CB2 receptors.

Take `Cn1nccc1-c1nc(C(C)(C)C)nc2c1nnn2CC(O)CC(F)(F)F` (centres unmarked) [Example 16, 1-[5-tert-butyl-7-(2-methylpyrazol-3-yl)triazolo[4,5-d]pyrimidin-3-yl]-4,4,4-trifluorobutan-2-ol]: the EC50 was over 10000 nM on human CB1 receptors and 42.4 nM at human CB2 receptors.

Consider `Cn1nnnc1Cn1nnc2c(-c3ncc[nH]3)nc(C(C)(C)C)nc21` [Example 28, 5-tert-butyl-7-(1H-imidazol-2-yl)-3-[(1-methyltetrazol-5-yl)methyl]triazolo[4,5-d]pyrimidine], for which the EC50 at human CB1 receptors is over 10000 nM; on human CB2 receptors it was 12.5 nM.

As for `Cn1nccc1-c1nc(C(C)(C)C)nc2c1nnn2C[C@H](O)C(F)(F)F` [Example 17, (2S)-3-[5-tert-butyl-7-(2-methylpyrazol-3-yl)triazolo[4,5-d]pyrimidin-3-yl]-1,1,1-trifluoropropan-2-ol], the EC50 on human CB1 receptors was over 10000 nM; at human CB2 receptors, 77.2 nM.

`Cc1nonc1Cn1nnc2c(-c3ccnn3C)nc(C(C)(C)C)nc21` [Example 14, 3-[[5-tert-butyl-7-(2-methylpyrazol-3-yl)triazolo[4,5-d]pyrimidin-3-yl]methyl]-4-methyl-1,2,5-oxadiazole]: the EC50 is over 10000 nM on human CB1 receptors and 1.3 nM at human CB2 receptors.

As for `CCC(O)(CC)c1nc(C(C)(C)C)nc2c1nnn2Cc1ccccc1Cl` [Example 38, 3-[5-tert-Butyl-3-[(2-chlorophenyl)methyl]triazolo[4,5-d]pyrimidin-7-yl]pentan-3-ol], the EC50 on human CB1 receptors was over 10000 nM; at human CB2 receptors, 45.3 nM.

For the molecule `Cc1ccc(-c2nc(C(C)(C)C)nc3c2nnn3Cc2ccccc2Cl)cc1` [Example 1, 5-tert-butyl-3-[(2-chlorophenyl)methyl]-7-(4-methylphenyl)triazolo[4,5-d]pyrimidine], the results for the concentration for a half-maximal effect (EC50) on human CB1 receptors and on human CB2 receptors were over 10000 nM and 206 nM, respectively.

`CC(C)(C)c1nc2c(nnn2Cc2ccccc2Cl)c([C@]2(O)C[C@@H](C(F)F)C2)n1` [Example 41, Cis-1-[5-tert-Butyl-3-[(2-chlorophenyl)methyl]triazolo[4,5-d]pyrimidin-7-yl]-3-(difluoromethyl)cyclobutanol]: the EC50 is over 10000 nM at human CB1 receptors and 30.5 nM at human CB2 receptors.

With `CC(C)(C)c1nc(C2(O)CCC2)c2nnn(Cc3ccccc3)c2n1` [Example 31, 1-(3-Benzyl-5-tert-butyltriazolo[4,5-d]pyrimidin-7-yl)cyclobutan-1-ol], the figures for the EC50 at human CB1 receptors and on human CB2 receptors were 645 nM and 4.5 nM, respectively.

On to `Cn1nccc1-c1nc(C(C)(C)C)nc2c1nnn2Cc1ccccc1S(C)(=O)=O` [Example 12, 5-tert-butyl-7-(2-methylpyrazol-3-yl)-3-[(2-methylsulfonylphenyl)methyl]triazolo[4,5-d]pyrimidine], for which the figures for the EC50 on human CB1 receptors and at human CB2 receptors were over 10000 nM and 3 nM, respectively.

On to `Cn1nnnc1Cn1nnc2c(-c3cc[nH]n3)nc(C(C)(C)C)nc21` [Example 26, 5-tert-butyl-3-[(1-methyltetrazol-5-yl)methyl]-7-(1H-pyrazol-3-yl)triazolo[4,5-d]pyrimidine], for which the values for the 50% effective concentration (EC50) on human CB1 receptors and at human CB2 receptors were over 10000 nM and 578 nM, respectively.

Take `CC(C)(C)c1nc2c(nnn2Cc2ccccc2Cl)c([C@]2(O)C[C@H](C(F)F)C2)n1` [Example 40, Trans-1-[5-tert-Butyl-3-[(2-chlorophenyl)methyl]triazolo[4,5-d]pyrimidin-7-yl]-3-(difluoromethyl)cyclobutanol]: the figures for the EC50 on human CB1 receptors and on human CB2 receptors were 1810 nM and 9.8 nM, respectively.

On to `CC(C)(C)c1nc(-c2ccc(Cl)cc2F)c2nnn(Cc3ccccc3Cl)c2n1` [Example 5, 5-tert-butyl-7-(4-chloro-2-fluorophenyl)-3-[(2-chlorophenyl)methyl]triazolo[4,5-d]pyrimidine], for which the EC50 at human CB1 receptors was over 10000 nM; on human CB2 receptors it was 88.2 nM.

With `Cn1nccc1-c1nc(C(C)(C)C)nc2c1nnn2C1CCOC1` (centres unmarked) [Example 18, 5-tert-butyl-7-(2-methylpyrazol-3-yl)-3-(oxolan-3-yl)triazolo[4,5-d]pyrimidine], the EC50 is over 10000 nM on human CB1 receptors and 86 nM at human CB2 receptors.

Take `CC(C)(C)c1nc(C2(O)C[S+]([O-])C2)c2nnn(Cc3ccccc3Cl)c2n1` (centres unmarked) [Example 42, 3-[5-tert-Butyl-3-[(2-chlorophenyl)methyl]triazolo[4,5-d]pyrimidin-7-yl]-1-oxo-thietan-3-ol]: the EC50 at human CB1 receptors is over 10000 nM; on human CB2 receptors, 110 nM.

As to `Cn1nccc1-c1nc(C(C)(C)C)nc2c1nnn2Cc1nnnn1C` [Example 13, 5-tert-butyl-7-(2-methylpyrazol-3-yl)-3-[(1-methyltetrazol-5-yl)methyl]triazolo[4,5-d]pyrimidine], the EC50 on human CB1 receptors was over 10000 nM; on human CB2 receptors it was 33.3 nM.

Take `Cn1nnnc1Cn1nnc2c(-c3cnnn3Cc3ccccc3)nc(C(C)(C)C)nc21` [Example 29, 7-(3-benzyltriazol-4-yl)-5-tert-butyl-3-[(1-methyltetrazol-5-yl)methyl]triazolo[4,5-d]pyrimidine]: the EC50 on human CB1 receptors was over 10000 nM; at human CB2 receptors, 16.6 nM.

For `Cn1nccc1-c1nc(C(C)(C)C)nc2c1nnn2CC1(C)COC1` [Example 23, 5-tert-butyl-3-[(3-methyloxetan-3-yl)methyl]-7-(2-methylpyrazol-3-yl)triazolo[4,5-d]pyrimidine], the 50% effective concentration (EC50) on human CB1 receptors was over 10000 nM; at human CB2 receptors, 445 nM.
